Measured values from patent US10959986B2, “Inhibitors of indoleamine 2,3-dioxygenase and methods of their use” (BRISTOL-MYERS SQUIBB COMPANY, priority 2018, dated 2021).
pIC50: −log10 of the molar value. Read-outs that look alike come from different tables or passages of the source.

Target: T1, indoleamine 2,3-dioxygenase (IDO) (Homo sapiens, UniProt P14902)
T1 construct: media containing IFNγ (#285-IF/CF, R&D Systems) at a final concentration of 25 ng/mL; endogenous in cells; host or cells: HeLa (ATCC CCL-2), induced with IFN-gamma
Experiment: HeLa cell-based indoleamine 2,3-dioxygenase (IDO) assay
Conditions: HeLa cells with IFNγ 25 ng/mL, 48 hour incubation, kynurenine production
Protocol: Assessment of Inhibitor Activity in HeLa Cell-Based Indoleamine 2,3-Dioxygenase (IDO) Assay.
HeLa (ATCCR CCL-2) cells were obtained from the ATCC® and cultured in Dulbecco's Modified Eagle Medium supplemented with 4.5 g/L glucose, […] L-glutamine and […] (#10-013-CV, Corning), 2 mM L-alanyl-L-glutamine dipeptide (#35050-061, Gibco), 100U/mL penicillin, 100 µg/mL streptomycin (#SV30010, HyClone) and 10% fetal bovine serum (#SH30071.03 HyClone). Cells were maintained in a humidified incubator at 37° C. in 5% CO2.
IDO activity was assessed as a function of kynurenine production as follows: HeLa cells were seeded in a 96-well culture plate at a density of 5,000 cells/well and allowed to equilibrate overnight. After 24 hours, the media was aspirated and replaced with media containing IFNγ (#285-IF/CF, R&D Systems) at a final concentration of 25 ng/mL. A serial dilution of each test compound was added to the cells in a total volume of 200 μL of culture medium. After a further 48 hour incubation, 170 μL of supernatant was transferred from each well to a fresh 96-well plate. 12.1 μL of 6. IN trichloroacetic acid (#T0699, Sigma-Aldrich) was added to each well and mixed, followed by incubation at 65° C. for 20 minutes to hydrolyze N-formylkynurenine, the product of indoleamine 2,3-dioxygenase, to kynurenine. The reaction mixture was then centrifuged for 10 mins at 500×g to sediment the precipitate. 100 μL of the supernatant was transferred from each well to a fresh 96-well plate. 100 μl of 2% (w/v) p-dimethylaminobenzaldehyde (#15647-7, Sigma-Aldrich) in acetic acid (#A6283, Sigma-Aldrich) was added to each well mixed and incubated at room temperature for 20 mins. Kynurenine concentrations were determined by measuring absorbance at 480 nm and calibrating against an L-kynurenine (#K8625, Sigma-Aldrich) standard curve using a SPECTRAMAX® M2e microplate reader (Molecular Devices). The percentage activity at each inhibitor concentration was determined and IC50 values assessed using nonlinear regression.

[1] = read-out: IDO Hela IC50 potency class (A < 50, B < 250, C < 2000)

T1 sequence (P14902 whole entry): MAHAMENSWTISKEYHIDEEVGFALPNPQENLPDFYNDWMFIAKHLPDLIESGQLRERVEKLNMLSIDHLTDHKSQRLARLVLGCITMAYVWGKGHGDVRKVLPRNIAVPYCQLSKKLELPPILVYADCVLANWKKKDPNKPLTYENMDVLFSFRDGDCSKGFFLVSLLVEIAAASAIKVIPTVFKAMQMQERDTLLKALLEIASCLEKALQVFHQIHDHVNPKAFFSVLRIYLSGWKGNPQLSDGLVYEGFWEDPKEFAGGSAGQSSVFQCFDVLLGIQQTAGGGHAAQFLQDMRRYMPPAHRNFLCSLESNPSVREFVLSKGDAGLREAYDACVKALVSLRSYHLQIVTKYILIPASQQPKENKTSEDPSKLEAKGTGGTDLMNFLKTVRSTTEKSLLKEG

pIC50 (read-out: IDO Hela IC50) | pIC50 [1] | Compound
≤ 6.00 | 5.70 to 6.60 | CCOc1ncc(Nc2cc([C@H](CC)CC(=O)O)ccc2-c2ccncc2F)cn1 (single isomer, unassigned) [Example 52]
7.52 |  | CCOc1ncc(Nc2cc([C@H](CC)CC(=O)O)ccc2-c2ccc(OC)cc2F)cn1 (single isomer, unassigned) [Example 53]
7.05 |  | CCOc1ncc(Nc2cc([C@H](CC)CC(=O)O)ccc2-c2c(C)noc2C)cn1 (single isomer, unassigned) [Example 54]
≤ 6.00 | 5.70 to 6.60 | CCOc1ncc(Nc2cc([C@H](CC)CC(=O)O)ccc2-c2cnn(CCN3CCOCC3)c2)cn1 (single isomer, unassigned) [Example 55]
6.41 |  | CCOc1ncc(Nc2cc([C@H](CC)CC(=O)O)ccc2C2=CC3CCC(C2)N3C(=O)OC(C)(C)C)cn1 (single isomer, unassigned) [Example 56]
6.96 |  | CCc1ncc(Nc2cc([C@H](CC)CC(=O)O)ccc2-c2sc(C)nc2C)cn1 (single isomer, unassigned) [Example 57]
6.41 |  | CCc1ncc(Nc2cc([C@@H](CC)CC(=O)O)ccc2-c2sc(C)nc2C)cn1 (single isomer, unassigned) [Example 58]
6.66 |  | COC[C@@H](CC(=O)O)c1ccc(-c2sc(C)nc2C)c(Nc2ccc(C#N)cc2)c1 (single isomer, unassigned) [Example 59]
8.00 |  | CCOc1ncc(Nc2cc([C@H](CC)CC(=O)O)ccc2-c2sc(C)nc2C)cn1 (single isomer, unassigned) [Example 61]
6.05 |  | CCOc1ncc(Nc2cc([C@H](CC)CC(=O)O)ccc2-c2ccc(C#N)cn2)cn1 (single isomer, unassigned) [Example 62]
6.15 |  | CCOc1ncc(Nc2cc([C@H](CC)CC(=O)O)ccc2-c2ncc(F)cn2)cn1 (single isomer, unassigned) [Example 63]
≤ 6.00 | 5.70 to 6.60 | CCOc1ncc(Nc2cc([C@H](CC)CC(=O)O)ccc2-c2cnc(OCC)nc2)cn1 (single isomer, unassigned) [Example 64]
≤ 6.00 | 5.70 to 6.60 | CCOc1ncc(Nc2cc([C@H](CC)CC(=O)O)ccc2-c2ccc3nc(C)oc3c2)cn1 (single isomer, unassigned) [Example 65]
6.12 |  | CCOc1ncc(Nc2cc([C@H](CC)CC(=O)O)ccc2-c2cccc(C(F)F)n2)cn1 (single isomer, unassigned) [Example 66]
≤ 6.00 | 5.70 to 6.60 | CCOc1ncc(Nc2cc([C@H](CC)CC(=O)O)ccc2-c2c[nH]c3cnccc23)cn1 (single isomer, unassigned) [Example 67]
6.30 |  | CCOc1ncc(Nc2cc([C@H](CC)CC(=O)O)ccc2-c2ccc3nc(C)sc3c2)cn1 (single isomer, unassigned) [Example 68]
6.96 |  | CCOc1ncc(Nc2cc([C@H](CC)CC(=O)O)ccc2-c2ncc(C)cn2)cn1 (single isomer, unassigned) [Example 69]
6.64 |  | CCOc1ncc(Nc2cc([C@H](CC)CC(=O)O)ccc2-c2ccc(Cl)cc2F)cn1 (single isomer, unassigned) [Example 70]
6.96 |  | CCOc1ncc(Nc2cc([C@H](CC)CC(=O)O)ccc2-c2ccc(Cl)cc2)cn1 (single isomer, unassigned) [Example 71]
6.68 |  | CCOc1ncc(Nc2cc([C@H](CC)CC(=O)O)ccc2-c2ccc(Cl)c(F)c2)cn1 (single isomer, unassigned) [Example 72]
6.35 |  | CCOc1cnc(-c2ccc([C@H](CC)CC(=O)O)cc2Nc2cnc(OCC)nc2)cn1 (single isomer, unassigned) [Example 74]
≤ 6.00 | 5.70 to 6.60 | CCOc1ncc(Nc2cc([C@H](CC)CC(=O)O)ccc2-c2c(C)n[nH]c2C)cn1 (single isomer, unassigned) [Example 75]
6.02 |  | CCOc1ncc(Nc2cc([C@H](CC)CC(=O)O)ccc2-c2nc3ccccc3s2)cn1 (single isomer, unassigned) [Example 76]
